# Test results reported in patent US12077503B2, “Substituted cyclic amides and their use as herbicides” (FMC CORPORATION, priority 2015, dated 2024).
# Columns and labels:
# Assay in all cases: Test D preemergence
# Assay type in all cases: in vivo
# Settings in all cases: scale 0 to 100
# [1] = system: wheat, spring (spring wheat, Triticum aestivum)
# Text: (§1) Seeds of plant species selected from bluegrass (annual bluegrass, Poa annua), blackgrass (Alopecurus myosuroides), canarygrass (littleseed canarygrass, Phalaris minor), chickweed (common chickweed, Stellaria media), Galium (catchweed bedstraw, Galium aparine), bromegrass, downy (downy bromegrass, Bromus tectorum), field poppy (Papaver rhoeas), field violet (Viola arvensis), foxtail, green (green foxtail, Setaria viridis), deadnettle (henbit deadnettle, Lamium amplexicaule), ryegrass, Italian (Italian ryegrass, Lolium multiflorum), Kochia (Kochia scoparia), lambsquarters (Chenopodium album), oilseed rape (Brassica napus), pigweed (Amaranthus retroflexus), chamomile (scentless chamomile, Matricaria inodora), Russian thistle (Salsola kali), speedwell (bird's-eye speedwell, Veronica persica), barley, spring (spring barley, Hordeum vulgare), wheat, spring (spring wheat, Triticum aestivum), buckwheat, wild (wild buckwheat, Polygonum convolvulus), mustard, wild (wild mustard, Sinapis arvensis), oat, wild (wild oat, Avena fatua), radish, wild (wild radish, Raphanus raphanistrum), windgrass (Apera spica-venti), barley, winter (winter barley Hordeum vulgare), and wheat, winter (winter wheat, Triticum aestivum) were planted into a silt loam soil and treated preemergence with test chemicals formulated in a non-phytotoxic solvent mixture which included a surfactant.
# (§2) Treated plants and controls were maintained in a controlled growth environment approximately 21 d after which time all species were compared to controls and visually evaluated. Plant response ratings, summarized in Table D, are based on a scale of 0 to 100 where 0 is no effect and 100 is complete control. A dash (-) response means no test result.
# [2] = system: windgrass (Apera spica-venti)
# Text: as §1, §2
# [3] = system: pigweed (Amaranthus retroflexus)
# Text: as §1, §2
# Kochia (Kochia scoparia) = system: Kochia (Kochia scoparia)
# Text: as §1, §2
# [4] = system: oat, wild (wild oat, Avena fatua)
# Text: as §1, §2
# [5] = system: field poppy (Papaver rhoeas)
# Text: as §1, §2
# [6] = system: ryegrass, Italian (Italian ryegrass, Lolium multiflorum)
# Text: as §1, §2
# [7] = system: blackgrass (Alopecurus myosuroides)
# Text: as §1, §2
# [8] = system: lambsquarters (Chenopodium album)
# Text: as §1, §2
# [9] = system: chamomile (scentless chamomile, Matricaria inodora)
# Text: as §1, §2
# [10] = system: bluegrass (annual bluegrass, Poa annua)
# Text: as §1, §2
# [11] = system: wheat, winter (winter wheat, Triticum aestivum)
# Text: as §1, §2
# [12] = system: Galium (catchweed bedstraw, Galium aparine)
# Text: as §1, §2
# [13] = system: foxtail, green (green foxtail, Setaria viridis)
# Text: as §1, §2
# [14] = system: radish, wild (wild radish, Raphanus raphanistrum)
# Text: as §1, §2
# [15] = system: field violet (Viola arvensis)
# Text: as §1, §2
# [16] = system: barley, winter (winter barley Hordeum vulgare)
# Text: as §1, §2
# [17] = system: oilseed rape (Brassica napus)
# Text: as §1, §2
# [18] = system: mustard, wild (wild mustard, Sinapis arvensis)
# Text: as §1, §2
# [19] = system: chickweed (common chickweed, Stellaria media)
# Text: as §1, §2
# [20] = system: speedwell (bird's-eye speedwell, Veronica persica)
# Text: as §1, §2
# [21] = system: bromegrass, downy (downy bromegrass, Bromus tectorum)
# Text: as §1, §2
compound,measurement,setting,value
"CN1C[C@H](c2ccc(C(F)(F)F)cc2)[C@@H](C(=O)Nc2cccc(F)c2F)C1=O [Compound 623, (3S,4S)—N-(2,3-difluorophenyl)-1-methyl-2-oxo-4-[4-(trifluoromethyl)phenyl]-3-pyrrolidinecarboxamide]","Plant response rating: Wheat, Spring",[1]; 31 g ai/ha,5
same,"Plant response rating: Wheat, Spring",[1]; 62 g ai/ha,10
same,"Plant response rating: Wheat, Spring",[1]; 125 g ai/ha,20
same,"Plant response rating: Wheat, Spring",[1]; 250 g ai/ha,45
same,Plant response rating: Windgrass,[2]; 31 g ai/ha,85
same,Plant response rating: Windgrass,[2]; 62 g ai/ha,90
same,Plant response rating: Windgrass,[2]; 125 g ai/ha,95
same,Plant response rating: Windgrass,[2]; 250 g ai/ha,95
same,Plant response rating: Pigweed,[3]; 31 g ai/ha,75
same,Plant response rating: Pigweed,[3]; 62 g ai/ha,95
same,Plant response rating: Pigweed,[3]; 125 g ai/ha,95
same,Plant response rating: Pigweed,[3]; 250 g ai/ha,100
same,Plant response rating: Kochia,Kochia (Kochia scoparia); 31 g ai/ha,25
same,Plant response rating: Kochia,Kochia (Kochia scoparia); 62 g ai/ha,75
same,Plant response rating: Kochia,Kochia (Kochia scoparia); 125 g ai/ha,95
same,Plant response rating: Kochia,Kochia (Kochia scoparia); 250 g ai/ha,95
same,"Plant response rating: Oat, Wild",[4]; 31 g ai/ha,25
same,"Plant response rating: Oat, Wild",[4]; 62 g ai/ha,30
same,"Plant response rating: Oat, Wild",[4]; 125 g ai/ha,55
same,"Plant response rating: Oat, Wild",[4]; 250 g ai/ha,60
same,Plant response rating: Field Poppy,[5]; 31 g ai/ha,80
same,Plant response rating: Field Poppy,[5]; 62 g ai/ha,80
same,Plant response rating: Field Poppy,[5]; 125 g ai/ha,85
same,Plant response rating: Field Poppy,[5]; 250 g ai/ha,100
same,"Plant response rating: Ryegrass, Italian",[6]; 31 g ai/ha,0
same,"Plant response rating: Ryegrass, Italian",[6]; 62 g ai/ha,15
same,"Plant response rating: Ryegrass, Italian",[6]; 125 g ai/ha,40
same,"Plant response rating: Ryegrass, Italian",[6]; 250 g ai/ha,65
same,Plant response rating: Blackgrass,[7]; 31 g ai/ha,30
same,Plant response rating: Blackgrass,[7]; 62 g ai/ha,40
same,Plant response rating: Blackgrass,[7]; 125 g ai/ha,45
same,Plant response rating: Blackgrass,[7]; 250 g ai/ha,70
same,Plant response rating: Lambsquarters,[8]; 31 g ai/ha,55
same,Plant response rating: Lambsquarters,[8]; 62 g ai/ha,60
same,Plant response rating: Lambsquarters,[8]; 125 g ai/ha,80
same,Plant response rating: Lambsquarters,[8]; 250 g ai/ha,95
same,Plant response rating: Chamomile,[9]; 31 g ai/ha,20
same,Plant response rating: Chamomile,[9]; 62 g ai/ha,80
same,Plant response rating: Chamomile,[9]; 125 g ai/ha,85
same,Plant response rating: Chamomile,[9]; 250 g ai/ha,100
same,Plant response rating: Bluegrass,[10]; 31 g ai/ha,25
same,Plant response rating: Bluegrass,[10]; 62 g ai/ha,65
same,Plant response rating: Bluegrass,[10]; 125 g ai/ha,70
same,Plant response rating: Bluegrass,[10]; 250 g ai/ha,85
same,"Plant response rating: Wheat, Winter",[11]; 31 g ai/ha,5
same,"Plant response rating: Wheat, Winter",[11]; 62 g ai/ha,20
same,"Plant response rating: Wheat, Winter",[11]; 125 g ai/ha,20
same,"Plant response rating: Wheat, Winter",[11]; 250 g ai/ha,40
same,Plant response rating: Galium,[12]; 31 g ai/ha,0
same,Plant response rating: Galium,[12]; 62 g ai/ha,5
same,Plant response rating: Galium,[12]; 125 g ai/ha,15
same,Plant response rating: Galium,[12]; 250 g ai/ha,80
same,"Plant response rating: Foxtail, Green",[13]; 31 g ai/ha,95
same,"Plant response rating: Foxtail, Green",[13]; 62 g ai/ha,98
same,"Plant response rating: Foxtail, Green",[13]; 125 g ai/ha,98
same,"Plant response rating: Foxtail, Green",[13]; 250 g ai/ha,98
same,"Plant response rating: Radish, Wild",[14]; 31 g ai/ha,0
same,"Plant response rating: Radish, Wild",[14]; 62 g ai/ha,15
same,"Plant response rating: Radish, Wild",[14]; 125 g ai/ha,50
same,"Plant response rating: Radish, Wild",[14]; 250 g ai/ha,85
same,Plant response rating: Field Violet,[15]; 31 g ai/ha,0
same,Plant response rating: Field Violet,[15]; 62 g ai/ha,0
same,Plant response rating: Field Violet,[15]; 125 g ai/ha,10
same,Plant response rating: Field Violet,[15]; 250 g ai/ha,15
same,"Plant response rating: Barley, Winter",[16]; 31 g ai/ha,5
same,"Plant response rating: Barley, Winter",[16]; 62 g ai/ha,10
same,"Plant response rating: Barley, Winter",[16]; 125 g ai/ha,40
same,"Plant response rating: Barley, Winter",[16]; 250 g ai/ha,65
same,Plant response rating: Oilseed Rape,[17]; 31 g ai/ha,15
same,Plant response rating: Oilseed Rape,[17]; 62 g ai/ha,20
same,Plant response rating: Oilseed Rape,[17]; 125 g ai/ha,25
same,Plant response rating: Oilseed Rape,[17]; 250 g ai/ha,75
same,"Plant response rating: Mustard, Wild",[18]; 31 g ai/ha,10
same,"Plant response rating: Mustard, Wild",[18]; 62 g ai/ha,15
same,"Plant response rating: Mustard, Wild",[18]; 125 g ai/ha,85
same,"Plant response rating: Mustard, Wild",[18]; 250 g ai/ha,85
same,Plant response rating: Chickweed,[19]; 31 g ai/ha,65
same,Plant response rating: Chickweed,[19]; 62 g ai/ha,95
same,Plant response rating: Chickweed,[19]; 125 g ai/ha,95
same,Plant response rating: Chickweed,[19]; 250 g ai/ha,95
same,Plant response rating: Speedwell,[20]; 31 g ai/ha,95
same,Plant response rating: Speedwell,[20]; 62 g ai/ha,100
same,Plant response rating: Speedwell,[20]; 125 g ai/ha,100
same,Plant response rating: Speedwell,[20]; 250 g ai/ha,90
same,"Plant response rating: Bromegrass, Downy",[21]; 31 g ai/ha,15
same,"Plant response rating: Bromegrass, Downy",[21]; 62 g ai/ha,30
same,"Plant response rating: Bromegrass, Downy",[21]; 125 g ai/ha,40
same,"Plant response rating: Bromegrass, Downy",[21]; 250 g ai/ha,65
